In patent US11840551B2, “Compositions and methods of modulating the immune response by activating alpha protein kinase 1” (Shanghai Yao Yuan Biotechnology Co., Ltd., priority 2017, dated 2023):
“Also recorded” adds a separate entry of the source.

Experiments:
[1] = target: T1, ALPK1 (Homo sapiens, UniProt Q96QP1); assay: IL8 secretion in HEK293 cells (IL8 ELISA) as indicator of ALPK1 activation; details: for IL8 secretion in HEK293 cells: serial dilutions, 4 hours
Description: Phosphatase such as the alkaline phosphatase may be responsible for H1b-ADP hydrolysis. We pre-mixed H1b-ADP with phosphatase inhibitor sodium orthovanadate (Na3VO4) before incubation with FBS. […] We hypothesized that the accumulation of hydrolysis product AMP can inhibit phosphatase activity.
A number of H1b-ADP derivative compounds were made as described herein and tested for biological activity as agonists of ALPK1 in vitro. In these experiments, serial dilutions of the compounds were added to the tissue culture media of HEK293 cells with (FIG. 27B, FIG. 28B, FIG. 29B) or without (FIG. 26, FIG. 27A, FIG. 28A, FIG. 29A) 10% FBS, as indicated in the figures. After 4 hours, the cell supernatant was collected and analyzed for IL8 concentration using IL8 ELISA (BD) as an indicator of ALPK1 activation.

[2] = target: T1, ALPK1; assay: In vitro kinase assay of ALPK1-dependent TIFA phosphorylation; type: biochemical; details: ALPK1 2 nM, TIFA 1.6 uM, 50 uM ATP; compound 2 nM, 0.4 nM, 80 pM, 16 pM, 3 pM
Description: We performed an in vitro kinase assay with H1b-ADP and H1b-ADP-6L along with ALPK1 protein (2 nM), and TIFA protein (1.6 uM) in kinase buffer containing 50 uM ATP. TIFA phosphorylation was analyzed by denaturing gel electrophoresis followed by western blotting using an anti-phosphothreonine antibody. H1b-ADP or H1b-ADP-6L was added at 2 nM, 0.4 nM, 80 pM, 16 pM, and 3 pM.
To test this, we performed an in vitro kinase reaction for ALPK1-dependent TIFA phosphorylation in the presence of either HBP or HIdA purified from E. coli containing inactivated HIdE, or in the presence of HBP and HIdA purified from the same HIdE wild-type E. coli used in the previous experiments. Phosphorylated TIFA (three concentrations, 1%, 0.2% and […]) was detected as described above by denaturing gel electrophoresis followed by Western analysis.

T1 sequence (Q96QP1 whole entry): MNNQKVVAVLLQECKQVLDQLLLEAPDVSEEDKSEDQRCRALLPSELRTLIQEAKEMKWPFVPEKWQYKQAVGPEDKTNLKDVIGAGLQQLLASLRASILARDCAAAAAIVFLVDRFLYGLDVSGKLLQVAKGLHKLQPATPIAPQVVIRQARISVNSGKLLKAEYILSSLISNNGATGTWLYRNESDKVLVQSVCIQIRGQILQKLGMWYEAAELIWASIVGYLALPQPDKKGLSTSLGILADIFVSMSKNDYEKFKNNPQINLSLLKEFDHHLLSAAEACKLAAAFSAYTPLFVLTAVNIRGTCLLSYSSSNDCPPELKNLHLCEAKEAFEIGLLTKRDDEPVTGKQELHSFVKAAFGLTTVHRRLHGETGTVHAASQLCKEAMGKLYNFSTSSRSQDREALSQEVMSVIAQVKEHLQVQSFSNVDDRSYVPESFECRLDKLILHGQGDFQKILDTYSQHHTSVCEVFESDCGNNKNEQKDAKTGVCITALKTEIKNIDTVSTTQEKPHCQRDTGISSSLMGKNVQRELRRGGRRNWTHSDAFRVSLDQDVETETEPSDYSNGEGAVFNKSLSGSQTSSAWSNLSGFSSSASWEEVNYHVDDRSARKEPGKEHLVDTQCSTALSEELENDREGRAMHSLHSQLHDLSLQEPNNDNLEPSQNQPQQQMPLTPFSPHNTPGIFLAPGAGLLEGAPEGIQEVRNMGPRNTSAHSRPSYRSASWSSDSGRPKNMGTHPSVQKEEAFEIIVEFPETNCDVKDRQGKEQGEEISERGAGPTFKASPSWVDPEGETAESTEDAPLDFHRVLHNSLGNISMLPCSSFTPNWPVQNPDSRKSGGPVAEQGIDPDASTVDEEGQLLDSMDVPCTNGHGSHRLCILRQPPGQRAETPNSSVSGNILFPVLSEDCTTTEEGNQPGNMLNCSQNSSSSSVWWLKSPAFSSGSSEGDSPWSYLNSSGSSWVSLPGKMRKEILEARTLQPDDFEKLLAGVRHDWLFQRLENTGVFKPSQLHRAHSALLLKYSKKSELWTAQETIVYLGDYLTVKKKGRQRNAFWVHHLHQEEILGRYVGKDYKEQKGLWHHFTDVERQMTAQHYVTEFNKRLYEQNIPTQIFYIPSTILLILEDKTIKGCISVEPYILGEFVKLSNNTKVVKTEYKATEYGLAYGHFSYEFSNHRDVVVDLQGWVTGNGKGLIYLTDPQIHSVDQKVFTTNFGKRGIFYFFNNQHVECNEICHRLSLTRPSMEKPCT

SMILES | IL8 secretion in HEK293 cells ([1]; with 10% FBS) | IL8 secretion in HEK293 cells ([1]; without FBS) | TIFA phosphorylation [2] | resistance to FBS (serum) degradation ([1]; comparison of IL8 secretion without FBS and with 10% FBS (FIG. 27A, FIG. 27B))
CC(=O)OC[C@@H](OC(C)=O)C1O[C@@H](OP(=O)(O)OP(=O)(O)OCC2(F)O[C@@H](n3cnc4c(N)ncnc43)C3OC(C)(C)OC32)C(OC(C)=O)C(OC(C)=O)[C@@H]1OC(C)=O (single isomer, unassigned) [Compound 19] | activate IL8 secretion | activate IL8 secretion | – | –
Nc1ncnc2c1ncn2[C@@H]1O[C@H](COP(O)(=S)OP(=O)(O)O[C@@H]2OC([C@H](O)CO)[C@@H](O)[C@H](O)C2O)[C@H](O)C1O (stereo partly drawn) [Compound 16] | increased IL8 secretion | increased IL8 secretion | – | –
CC(=O)OC[C@H](OC(C)=O)[C@H]1O[C@@H](OP(=O)(O)OP(=O)(O)OC[C@H]2O[C@@H](n3cnc4c(N)ncnc43)[C@H](O)[C@@H]2O)[C@@H](OC(C)=O)[C@@H](OC(C)=O)[C@@H]1OC(C)=O [Compound 21, (2S,3S,4S,5R,6R)-2-(((((((2R,3S,4R,5R)-5-(6-amino-9H-purin-9-yl)-3,4-dihydroxytetrahydrofuran-2-yl)methoxy)(hydroxy)phosphoryl)oxy)(hydroxy)phosphoryl)oxy)-6-((S)-1,2-diacetoxyethyl)tetrahydro-2H-pyran-3,4,5-triyl triacetate] | increased IL8 secretion | increased IL8 secretion | – | –
Nc1ncnc2c1ncn2[C@@H]1O[C@H](COP(=O)(O)OP(=O)(O)O[C@@H]2O[C@H]([C@@H](O)CO)[C@@H](O)[C@H](O)[C@@H]2O)[C@@H](O)[C@H]1O [Compound H1b-ADP-6L, L-glycero-D-manno-heptose-1β-ADP] | – | – | activated ALPK1-dependent signaling in a manner similar to H1b-ADP | –
COC1C(OC)[C@@H](COP(=O)(O)OP(=O)(O)O[C@@H]2OC([C@H](O)CO)[C@@H](O)C(O)C2O)O[C@H]1n1cnc2c(N)ncnc21 (stereo in doubt) [Compound 14, Adenosine-2′3′-dimethoxy-5′-(D-glycero-B-D-mannoheptopyranosyl) diphosphate] | increased IL8 secretion | increased IL8 secretion | – | –
CC(=O)OC[C@@H](OC(C)=O)[C@H]1O[C@@H](OP(=O)(O)OP(=O)(O)OC[C@H]2O[C@@H](n3cnc4c(N)ncnc43)[C@H](O)[C@H]2F)[C@@H](OC(C)=O)[C@@H](OC(C)=O)[C@@H]1OC(C)=O [Compound 17, (2S,3S,4S,5R,6R)-2-(((((((2R,3R,4S,5R)-5-(6-amino-9H-purin-9-yl)-3-fluoro-4-hydroxytetrahydrofuran-2-yl)methoxy)(hydroxy)phosphoryl)oxy)(hydroxy)phosphoryl)oxy)-6-((R)-1,2-diacetoxyethyl)tetrahydro-2H-pyran-3,4,5-triyl triacetate] | increased IL8 secretion | increased IL8 secretion | – | –
CC(=O)OC[C@@H](OC(C)=O)C1O[C@@H](OP(=O)(O)OP(O)(=S)OC[C@H]2O[C@@H](n3cnc4c(N)ncnc43)C(O)C2O)C(OC(C)=O)C(OC(C)=O)[C@@H]1OC(C)=O (stereo partly drawn) [Compound 15, (2S,3S,4S,5R,6R)-2-(((((((2R,3S,4R,5R)-5-(6-amino-9H-purin-9-yl)-3,4-dihydroxytetrahydrofuran-2-yl)methoxy)(hydroxy)phosphorothioyl)oxy)(hydroxy)phosphoryl)oxy)-6-((R)-1,2-diacetoxyethyl)tetrahydro-2H-pyran-3,4,5-triyl triacetate] | activate IL8 secretion | activate IL8 secretion | – | unexpected resistance to serum degradation; also recorded: resistant to FBS degradation
CC(=O)OC[C@H](F)[C@H]1O[C@@H](OP(=O)(O)OP(=O)(O)OC[C@H]2O[C@@H](n3cnc4c(N)ncnc43)[C@H](O)[C@@H]2O)[C@@H](OC(C)=O)[C@@H](OC(C)=O)[C@@H]1OC(C)=O [Compound 3, (2S,3S,4S,5S,6S)-2-((S)-2-acetoxy-1-fluoroethyl)-6-(((((((2R,3S,4R,5R)-5-(6-amino-9H-purin-9-yl)-3,4-dihydroxytetrahydrofuran-2-yl)methoxy)(hydroxy)phosphoryl)oxy)(hydroxy)phosphoryl)oxy)tetrahydro-2H-pyran-3,4,5-triyl triacetate] | activate IL8 secretion | activate IL8 secretion | – | –
CC(=O)OC[C@@H](OC(C)=O)[C@H]1O[C@@H](OP(=O)(O)OP(=O)(O)OC[C@@]2(F)O[C@@H](n3cnc4c(N)ncnc43)[C@H](O)[C@@H]2O)[C@@H](OC(C)=O)[C@@H](OC(C)=O)[C@@H]1OC(C)=O [Compound 20, (2S,3S,4S,5R,6R)-2-(((((((2S,3S,4R,5R)-5-(6-amino-9H-purin-9-yl)-2-fluoro-3,4-dihydroxytetrahydrofuran-2-yl)methoxy)(hydroxy)phosphoryl)oxy)(hydroxy)phosphoryl)oxy)-6-((R)-1,2-diacetoxyethyl)tetrahydro-2H-pyran-3,4,5-triyl triacetate] | activate IL8 secretion | activate IL8 secretion | – | –
CO[C@@H]1[C@H](OC)[C@@H](COP(=O)(O)OP(=O)(O)O[C@@H]2O[C@H]([C@@H](COC(C)=O)OC(C)=O)[C@@H](OC(C)=O)[C@H](OC(C)=O)[C@@H]2OC(C)=O)O[C@H]1n1cnc2c(N)ncnc21 [Compound 13, (2S,3S,4S,5R,6R)-2-(((((((2R,3R,4R,5R)-5-(6-amino-9H-purin-9-yl)-3,4-dimethoxytetrahydrofuran-2-yl)methoxy)(hydroxy)phosphoryl)oxy)(hydroxy)phosphoryl)oxy)-6-((R)-1,2-diacetoxyethyl)tetrahydro-2H-pyran-3,4,5-triyl triacetate] | increased IL8 secretion | increased IL8 secretion | – | –
Nc1ncnc2c1ncn2[C@@H]1O[C@H](COP(=O)(O)OP(=O)(O)O[C@@H]2OC([C@@H](O)CO)[C@@H](O)C(O)C2O)C(O)C1O (stereo in doubt) [Compound 22, Adenosine-5′-(L-glycero-β-D-mannoheptopyranosyl) diphosphate] | increased IL8 secretion | increased IL8 secretion | – | –
CC(=O)OC[C@H]1O[C@@H](OP(=O)(O)OP(=O)(O)OC[C@H]2O[C@@H](n3cnc4c(N)ncnc43)[C@H](O)[C@@H]2O)[C@@H](OC(C)=O)[C@@H](OC(C)=O)[C@@H]1OC(C)=O [Compound 5, (2R,3R,4S,5S,6S)-2-(acetoxymethyl)-6-(((((((2R,3S,4R,5R)-5-(6-amino-9H-purin-9-yl)-3,4-dihydroxytetrahydrofuran-2-yl)methoxy)(hydroxy)phosphoryl)oxy)(hydroxy)phosphoryl)oxy)tetrahydro-2H-pyran-3,4,5-triyl triacetate] | increased IL8 secretion | increased IL8 secretion | – | –
